Experimental data: patent US10005774B2, “Syk inhibitors” (Gilead Sciences, Inc., priority 2013, dated 2018)
pIC50: −log10 of the molar value.

Biological target: Syk (Homo sapiens, UniProt P43405)
Experiment: High Throughput Syk Biochemical Assay (KinEASE TR-FRET)
Settings: TABLE D, 20 μM ATP, 1 μM biotinylated peptide, 0.015 nM Syk, 30 min at room temperature, read-out: IC50
Outline: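 Compounds in DMSO dilution series were tested against Syk, which phosphorylates an XL665-tagged peptide. The phosphoproduct was bound by Eu-labelled phosphotyrosine antibody in a two-step endpoint format.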

| SMILES | pIC50 |
| --- | --- |
| C[C@H](Oc1cc(-c2cnc(C(C)(C)C)s2)cc2ncsc12)[C@@H]1CNC(=O)C1 (stereo in doubt) [(S)-4-((S)-1-((5-(2-(tert-butyl)thiazol-5-yl)benzo[d]thiazol-7-yl)oxy)ethyl)pyrrolidin-2-one] | 8.83 |
| C[C@@H](Oc1nc(-c2ccc3scnc3c2)cc2ncn(C)c12)[C@H]1CNC(=O)C1 [(R)-4-((R)-1-((6-(benzo[d]thiazol-5-yl)-3-methyl-3H-imidazo[4,5-c]pyridin-4-yl)oxy)ethyl)pyrrolidin-2-one] | 7.51 |
| C[C@@H](Oc1nc(-c2ccc3c(c2)NCCO3)cc2ncn(C)c12)[C@H]1CNC(=O)C1 [(R)-4-((R)-1-(6-(3,4-dihydro-2H-benzo[b][1,4]oxazin-6-yl)-3-methyl-3H-imidazo[4,5-c]pyridin-4-yloxy)ethyl)pyrrolidin-2-one] | 8.39 |
| Cc1nc2cc(-c3cc4ncn(C)c4c(O[C@H](C)[C@H]4CNC(=O)C4)n3)ccc2s1 [(R)-4-((R)-1-((3-methyl-6-(2-methylbenzo[d]thiazol-5-yl)-3H-imidazo[4,5-c]pyridin-4-yl)oxy)ethyl)pyrrolidin-2-one] | 7.91 |
| C[C@@H](Oc1cc(-c2cccc(C(F)(F)F)n2)cc2ncn(C)c12)[C@H]1CNC(=O)C1 [(R)-4-((R)-1-((1-methyl-5-(6-(trifluoromethyl)pyridin-2-yl)-1H-benzo[d]imidazol-7-yl)oxy)ethyl)pyrrolidin-2-one] | 6.72 |
| C[C@@H](Oc1cc(-c2cnn(CC(F)F)c2)cn2nccc12)[C@H]1CNC(=O)C1 [(R)-4-((R)-1-((6-(1-(2,2-difluoroethyl)-1H-pyrazol-4-yl)pyrazolo[1,5-a]pyridin-4-yl)oxy)ethyl)pyrrolidin-2-one] | 7.99 |
| CCn1cnc2cc(-c3ccc(OC)c(OC)c3)nc(O[C@H](C)[C@H]3CNC(=O)C3)c21 [(R)-4-((R)-1-(6-(3,4-dimethoxyphenyl)-3-ethyl-3H-imidazo[4,5-c]pyridin-4-yloxy)ethyl)pyrrolidin-2-one] | 8.52 |
| C[C@@H](Oc1nc(-c2cnn(CC(F)F)c2)cc2ncn(C(F)F)c12)[C@H]1CNC(=O)C1 [(R)-4-((R)-1-(6-(1-(2,2-difluoroethyl)-1H-pyrazol-4-yl)-3-(difluoromethyl)-3H-imidazo[4,5-c]pyridin-4-yloxy)ethyl)pyrrolidin-2-one] | 8.48 |
| C[C@@H](Oc1nc(-c2ccc(N3CCN(S(C)(=O)=O)CC3)cc2)cc2ncn(C)c12)[C@H]1CNC(=O)C1 [(R)-4-((R)-1-(3-methyl-6-(4-(4-(methylsulfonyl)piperazin-1-yl)phenyl)-3H-imidazo[4,5-c]pyridin-4-yloxy)ethyl)pyrrolidin-2-one] | 8.35 |
| C[C@@H](Oc1cc(-c2ccc(N3CCN(C4COC4)CC3)cn2)cc2ncsc12)[C@H]1CNC(=O)C1 (stereo in doubt) [(R)-4-((R)-1-((5-(5-(4-(oxetan-3-yl)piperazin-1-yl)pyridin-2-yl)benzo[d]thiazol-7-yl)oxy)ethyl)pyrrolidin-2-one] | 8.76 |
| CC(C)Cn1cc(-c2cc3ncn(C)c3c(O[C@H](C)[C@H]3CNC(=O)C3)n2)cn1 [(R)-4-((R)-1-(6-(1-isobutyl-1H-pyrazol-4-yl)-3-methyl-3H-imidazo[4,5-c]pyridin-4-yloxy)ethyl)pyrrolidin-2-one] | 7.80 |
| CC[C@@H](Oc1nc(-c2cnn(C(C)(C)C)c2)cc2ncn(C)c12)[C@H]1CNC(=O)C1 [(R)-4-((R)-1-(6-(1-tert-butyl-1H-pyrazol-4-yl)-3-methyl-3H-imidazo[4,5-c]pyridin-4-yloxy)propyl)pyrrolidin-2-one] | 7.62 |
| C[C@@H](Oc1cc(-c2cccc3scnc23)cc2ncsc12)[C@H]1CNC(=O)C1 [(R)-4-((R)-1-([4,5′-bibenzo[d]thiazol]-7′-yloxy)ethyl)pyrrolidin-2-one] | 6.98 |
| C[C@@H](Oc1cc(-c2cnn(C(C)(C)C)c2)cc2ncsc12)[C@H]1CNC(=O)C1 (stereo in doubt) [(R)-4-((R)-1-((5-(1-(tert-butyl)-1H-pyrazol-4-yl)benzo[d]thiazol-7-yl)oxy)ethyl)pyrrolidin-2-one] | 9.05 |
| COc1ccc(-c2cc(O[C@H](C)[C@H]3CNC(=O)C3)c3ccnn3c2)cc1OC [(R)-4-((R)-1-((6-(3,4-dimethoxyphenyl)pyrazolo[1,5-a]pyridin-4-yl)oxy)ethyl)pyrrolidin-2-one] | 7.41 |
| CC(=O)N1CCN(c2ccc(-c3cc(O[C@H](C)[C@H]4CNC(=O)C4)c4scnc4c3)nc2)CC1 (stereo in doubt) [(R)-4-((R)-1-((5-(5-(4-acetylpiperazin-1-yl)pyridin-2-yl)benzo[d]thiazol-7-yl)oxy)ethyl)pyrrolidin-2-one] | 8.80 |

Same assay, conditions: table 'ALL NEW COMPOUNDS IN 2014', 20 μM ATP, 1 μM biotinylated peptide, 0.015 nM Syk, 30 min at room temperature, read-out: Syk IC50

| SMILES | pIC50 |
| --- | --- |
| C[C@@H](Oc1cc(-c2ccc3c(n2)NCCO3)cc2ncn(C3CC3)c12)[C@H]1CNC(=O)C1 [(R)-4-((R)-1-((1-cyclopropyl-5-(3,4-dihydro-2H-pyrido[3,2-b][1,4]oxazin-6-yl)-1H-benzo[d]imidazol-7-yl)oxy)ethyl)pyrrolidin-2-one] | 8.32 |
| C[C@@H](Oc1nc(-c2ccc(N3CCN(C4COC4)CC3)c(C#N)c2)cc2ncn(C3CC3)c12)[C@H]1CNC(=O)C1 [5-(3-cyclopropyl-4-((R)-1-((R)-5-oxopyrrolidin-3-yl)ethoxy)-3H-imidazo[4,5-c]pyridin-6-yl)-2-(4-(oxetan-3-yl)piperazin-1-yl)benzonitrile] | 8.28 |
| C[C@@H](Oc1cc(-c2cnc(C(C)(C)O)s2)cc2ncn(C3CC3)c12)[C@H]1CNC(=O)C1 [(R)-4-((R)-1-((1-cyclopropyl-5-(2-(2-hydroxypropan-2-yl)thiazol-5-yl)-1H-benzo[d]imidazol-7-yl)oxy)ethyl)pyrrolidin-2-one] | 8.85 |
| C[C@@H](Oc1cc(-c2ccccc2)cc2ncn(C3CC3)c12)[C@H]1CNC(=O)C1 [(R)-4-((R)-1-((1-cyclopropyl-5-phenyl-1H-benzo[d]imidazol-7-yl)oxy)ethyl)pyrrolidin-2-one] | 7.74 |
| C[C@@H](Oc1nc(-c2ccc(N3CCN(S(C)(=O)=O)CC3)c(F)c2)cc2ncn(C3CC3)c12)[C@H]1CNC(=O)C1 [(R)-4-((R)-1-((3-cyclopropyl-6-(3-fluoro-4-(4-(methylsulfonyl)piperazin-1-yl)phenyl)-3H-imidazo[4,5-c]pyridin-4-yl)oxy)ethyl)pyrrolidin-2-one] | 8.70 |
| C[C@@H](Oc1cc(-c2cnn(C)n2)cc2ncn(C3CC3)c12)[C@H]1CNC(=O)C1 [(R)-4-((R)-1-((1-cyclopropyl-5-(2-methyl-2H-1,2,3-triazol-4-yl)-1H-benzo[d]imidazol-7-yl)oxy)ethyl)pyrrolidin-2-one] | 7.65 |
| C[C@@H](Oc1nc(-c2ccc(C3(O)CC3)cc2)cc2ncn(C3CC3)c12)[C@H]1CNC(=O)C1 | 8.07 |
| C[C@@H](Oc1nc(-c2ccc(N3CCN(C4COC4)CC3)cc2F)cc2ncn(C3CC3)c12)[C@H]1CNC(=O)C1 [(R)-4-((R)-1-((3-cyclopropyl-6-(2-fluoro-4-(4-(oxetan-3-yl)piperazin-1-yl)phenyl)-3H-imidazo[4,5-c]pyridin-4-yl)oxy)ethyl)pyrrolidin-2-one] | 8.00 |
| C[C@@H](Oc1nc(-c2ccc(N3CCN(C4COC4)CC3)c(F)c2)cc2ncn(C3CC3)c12)[C@H]1CNC(=O)C1 [(R)-4-((R)-1-((3-cyclopropyl-6-(3-fluoro-4-(4-(oxetan-3-yl)piperazin-1-yl)phenyl)-3H-imidazo[4,5-c]pyridin-4-yl)oxy)ethyl)pyrrolidin-2-one] | 8.63 |
| C[C@@H](Oc1cc(-c2ccnn2C2CCOCC2)cc2ncn(C3CC3)c12)[C@H]1CNC(=O)C1 [(R)-4-((R)-1-((1-cyclopropyl-5-(1-(tetrahydro-2H-pyran-4-yl)-1Hpyrazol-5-yl)-1H-benzo[d]imidazol-7-yl)oxy)ethyl)pyrrolidin-2-one] | 6.39 |
| C[C@@H](Oc1cc(-c2ccccn2)cc2ncn(C3CC3)c12)[C@H]1CNC(=O)C1 [(R)-4-((R)-1-((1-cyclopropyl-5-(pyridin-2-yl)-1H-benzo[d]imidazol-7-yl)oxy)ethyl)pyrrolidin-2-one] | 7.98 |
| C[C@@H](Oc1nc(-c2ccc3c(c2)NC(=O)OC3(C)C)cc2ncn(C)c12)[C@H]1CNC(=O)C1 [4,4-dimethyl-7-(3-methyl-4-((R)-1-((R)-5-oxopyrrolidin-3-yl)ethoxy)-3H-imidazo[4,5-c]pyridin-6-yl)-1H-benzo[d][1,3]oxazin-2(4H)-one] | 9.03 |
| C[C@@H](Oc1nc(-c2ccc3c(c2)NC(=O)C32CCN(S(C)(=O)=O)CC2)cc2ncn(C3CC3)c12)[C@H]1CNC(=O)C1 [6-(3-cyclopropyl-4-((R)-1-((R)-5-oxopyrrolidin-3-yl)ethoxy)-3H-imidazo[4,5-c]pyridin-6-yl)-1′-(methylsulfonyl)spiro[indoline-3,4′-piperidin]-2-one] | 8.96 |
| C[C@@H](Oc1nc(-c2ccc3c(c2)N(C)C(=O)OC3(C)C)cc2ncn(C)c12)[C@H]1CNC(=O)C1 [1,4,4-trimethyl-7-(3-methyl-4-((R)-1-((R)-5-oxopyrrolidin-3-yl)ethoxy)-3H-imidazo[4,5-c]pyridin-6-yl)-1H-benzo[d][1,3]oxazin-2(4H)-one] | 8.60 |
| C[C@@H](Oc1cc(-c2ccc3c(cnn3C)c2)cc2ncn(C3CC3)c12)[C@H]1CNC(=O)C1 [(R)-4-((R)-1-((1-cyclopropyl-5-(1-methyl-1H-indazol-5-yl)-1H-benzo[d]imidazol-7-yl)oxy)ethyl)pyrrolidin-2-one] | 8.30 |
| C[C@@H](Oc1nc(-c2cnc3c(c2)N(C)C(=O)C3(C)C)cc2ncn(C3CC3)c12)[C@H]1CNC(=O)C1 [6-(3-cyclopropyl-4-((R)-1-((R)-5-oxopyrrolidin-3-yl)ethoxy)-3H-imidazo[4,5-c]pyridin-6-yl)-1,3,3-trimethyl-1H-pyrrolo[3,2-b]pyridin-2(3H)-one] | 8.05 |
| C[C@@H](Oc1nc(-c2ccc(N3CCN(S(=O)(=O)C4CC4)CC3)cc2)cc2ncn(C3CC3)c12)[C@H]1CNC(=O)C1 [(R)-4-((R)-1-((3-cyclopropyl-6-(4-(4-(cyclopropylsulfonyl)piperazin-1-yl)phenyl)-3H-imidazo[4,5-c]pyridin-4-yl)oxy)ethyl)pyrrolidin-2-one] | 8.89 |
